For orientation: inhibition means the percentage by which the read-out fell short of the control. What is called Ki is a dissociation constant, usually derived from enzyme kinetics or from competition with a known ligand.

Inhibition and Ki data for 23 molecules are collected here from patent US8629158B2, “Azabicycloalkane-indole and azabicycloalkane-pyrrolo-pyridine MCH-1 antagonists, methods of making, and use thereof” (Albany Molecular Research, Inc., priority 2009, dated 2014).

The structures appear in SMILES notation. Counter-ions that a name gives are not always drawn.

For one assay, the target named is human MCH-1 receptor (Homo sapiens (Human), UniProt Q99705). The assay can be described thus: Binding Assay for Human Melanin-Concentrating Hormone (MCH-1) Receptor (radioligand displacement, CHO-K1 membranes). The settings on record: @ 1 uM test compound; read-out: MCH-1 percent inhibition of control radioligand specific binding. As to the method: Evaluation of the affinity of compounds for the human MCH-1 receptor was accomplished using 4-(3,4,5-tritritiumbenzyloxy)-1-(1-(2-(pyrrolidin-1-yl)ethyl)-1H-indazol-5-yl)pyridin-2(1H)-one and membranes prepared from stable CHO-K1 cells expressing the human MCH1 receptor obtained from Euroscreen (Batch 1138). Cell membrane homogenates (8.92 μg protein) were incubated for 60 min at 25° C. with […] of the [^3H]-labeled compound in the absence or presence of the test compound in 50 mM Tris-HCl buffer, pH 7.4. Nonspecific binding was determined in the presence of 50 μM 1-(5-(4-cyanophenyl)bicyclo[3.1.0]hexan-2-yl)-3-(4-fluoro-3-(trifluoromethyl)phenyl)-1-(3-(4-methylpiperazin-1-yl)propyl)urea. Following incubation, the samples were filtered rapidly under vacuum through Skatron 11731 filters, pre-soaked in 0.5% polyethylenimine, and washed with ice-cold 50 mM Tris-HCl buffer, pH 7.4, (wash setting 9,9,0) using a Skatron cell harvester. The filters were counted for radioactivity in a liquid scintillation counter (Tri-Carb 2100TR, Packard) using a scintillation cocktail (Ultima Gold MV, Perkin Elmer).
human MCH-1 receptor, sequence (Q99705 whole entry): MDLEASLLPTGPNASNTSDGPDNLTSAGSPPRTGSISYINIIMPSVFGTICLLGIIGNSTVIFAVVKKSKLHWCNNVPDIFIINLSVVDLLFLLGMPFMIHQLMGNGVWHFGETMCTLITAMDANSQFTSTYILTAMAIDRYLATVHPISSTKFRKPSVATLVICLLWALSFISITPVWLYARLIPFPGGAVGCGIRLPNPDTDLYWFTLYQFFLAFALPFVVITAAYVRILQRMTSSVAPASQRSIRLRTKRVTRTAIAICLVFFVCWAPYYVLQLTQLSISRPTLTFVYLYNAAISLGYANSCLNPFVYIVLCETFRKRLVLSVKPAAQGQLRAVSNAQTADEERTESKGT
The results are expressed as a percent inhibition of the control radioligand specific binding. The IC50 value (concentration causing a half-maximal inhibition of control specific binding) and Hill coefficient (nH) were determined by non-linear regression analysis of the competition curve using Hill equation curve fitting. The inhibition constant (Ki) was calculated from the Cheng Prusoff equation: (Ki=IC50/(1+(L/KD)), where L=concentration of radioligand in the assay, and KD=affinity of the radioligand for the receptor.
A general note: Displacement assays read how much labelled ligand stays bound in the presence of the test substance.
On to `Cn1c2c(c3ccc(-n4ccc(-c5ccc(C(F)(F)F)nc5)cc4=O)cc31)C1CCC(C2)N1` (single isomer, unassigned; enantiomer a) [Example 37, 1-(5-Methyl-5,6,7,8,9,10-hexahydro-7,10-iminocyclohept[b]indol-3-yl)-4-(6-(trifluoromethyl)pyridin-3-yl)pyridin-2(1H)-one hydrochloride (Enantiomer A)], for which the inhibition at 1 µM turned out to be 72%.

Staying with this assay, now noted: MCH-1 Ki (nM), membranes from CHO-K1 cells expressing human MCH1 receptor; [3H]-labeled radioligand; Ki from IC50 by Cheng Prusoff.
In the case of `Cn1c2c(c3ccc(-n4ccc(OCc5ccc(C(F)(F)F)nc5)cc4=O)cc31)C1CCC(C2)N1` (single isomer, unassigned; enantiomer b) [Example 38, 1-(5-Methyl-5,6,7,8,9,10-hexahydro-7,10-iminocyclohept[b]indol-3-yl)-4-((6-(trifluoromethyl)pyridin-3-yl)methoxy)pyridin-2(1H)-one hydrochloride (Enantiomer B)], the affinity corresponds to a Ki of 12 nM. Same read-out and setting: under `Cn1c2c(c3ccc(-n4ccc(OCc5ccc(F)cn5)cc4=O)cc31)C1CCC(C2)N1` (single isomer, unassigned; enantiomer a) [Example 25, (+)-4-((5-Fluoropyridin-2-yl)methoxy)-1-(5-methyl-5,6,7,8,9,10-hexahydro-7,10-iminocyclohept[b]indol-3-yl)pyridin-2(1H)-one hydrochloride (Enantiomer A)] stands 19 nM; under `CC(=O)N1C2CCC1c1c(n(C)c3cc(-n4ccc(OCc5ccc(F)cn5)cc4=O)ccc13)C2` (single isomer, unassigned; enantiomer a) [Example 29, 1-(11-Acetyl-5-methyl-5,6,7,8,9,10-hexahydro-7,10-iminocyclohept[b]indol-3-yl)-4-((5-Fluoropyridin-2-yl)methoxy)pyridin-2(1H)-one (Enantiomer A)], 75 nM. Same read-out and setting: the value for `Cn1c2c(c3ccc(-n4ccc(OCc5ccc(F)cn5)cc4=O)cc31)C1CCC(C2)N1` (single isomer, unassigned; enantiomer b) [Example 24, (−)-4-((5-Fluoropyridin-2-yl)methoxy)-1-(5-methyl-5,6,7,8,9,10-hexahydro-7,10-iminocyclohept[b]indol-3-yl)pyridin-2(1H)-one hydrochloride (Enantiomer B)] was 7.4 nM.

Turning to `Cn1c2c(c3ccc(N4CCN(CCc5ccccc5)CC4=O)cc31)C1CCC(C2)N1` (single isomer, unassigned; enantiomer b) [Example 33, 1-(5-Methyl-5,6,7,8,9,10-hexahydro-7,10-iminocyclohept[b]indol-3-yl)-4-phenethylpiperazin-2-one dihydrochloride (Enantiomer B)], the affinity corresponds to a Ki of 17 nM. As for `CC(=O)N1C2CCC1c1c([nH]c3cc(-n4ccc(OCc5ccccc5)cc4=O)ccc13)C2` (single isomer, unassigned; enantiomer a) [Example 30, 1-(11-Acetyl-5,6,7,8,9,10-hexahydro-7,10-iminocyclohept[b]indol-3-yl)-4-(benzyloxy)pyridin-2(1H)-one hydrochloride (Enantiomer A)], affinity was put at a Ki of 97 nM.

Regarding `Cn1c2c(c3ccc(-n4ccc(OCc5ccccc5)cc4=O)cc31)C1CCC(C2)N1` (single isomer, unassigned; enantiomer b) [Example 15, 4-(Benzyloxy)-1-(5-methyl-5,6,7,8,9,10-hexahydro-7,10-iminocyclohept[b]indol-3-yl)pyridin-2(1H)-one hydrochloride (Enantiomer B)], the Ki came out at 7.8 nM.

Staying with this assay, now noted: membranes from CHO-K1 cells expressing human MCH1 receptor; [3H]-labeled radioligand; Ki from IC50 by Cheng Prusoff; read-out: MCH-1 Ki.
For the molecule `Cn1c2c(c3ccc(-n4ccc(-c5ccc(C(F)(F)F)cc5)cc4=O)nc31)C1CCC(C2)N1` (centres unmarked) [Example 50, 1-(10-Methyl-5,6,7,8,9,10-hexahydro-5,8-iminocyclohepta[4,5]pyrrolo[2,3-b]pyridin-2-yl)-4-(4-(trifluoromethyl)phenyl)pyridin-2(1H)-one hydrochloride], the Ki stood at 19 nM. Take `Cn1c2c(c3ccc(-n4ccc(OCc5ccc(F)cn5)cc4=O)cc31)C1CCCC(C2)N1` (centres unmarked) [Example 11, 4-((5-Fluoropyridin-2-yl)methoxy)-1-(5-methyl-6,7,8,9,10,11-hexahydro-7,11-imino-5H-cyclooct[b]indol-3-yl)pyridin-2(1H)-one dihydrochloride]: the Ki is 21.3 nM. Take `Cn1c2c(c3ccc(-n4ccc(OCc5ccccc5)cc4=O)cc31)C1CCC(C2)N1` (centres unmarked) [Example 2, 4-(Benzyloxy)-1-(5-methyl-5,6,7,8,9,10-hexahydro-7,10-iminocyclohept[b]indol-3-yl)pyridin-2(1H)-one hydrochloride]: the Ki amounted to 10.5 nM. Consider `Cn1c2c(c3ccc(-n4ccc(OCc5ccc(Cl)cc5F)cc4=O)nc31)C1CCC(C2)N1` (centres unmarked) [Example 47, 4-(4-Chloro-2-fluorobenzyloxy)-1-(10-methyl-5,6,7,8,9,10-hexahydro-5,8-iminocyclohepta[4,5]pyrrolo[2,3-b]pyridin-2-yl)pyridin-2(1H)-one hydrochloride], for which the Ki is 14 nM. The same measure, in the same setting: the value for `Cn1c2c(c3ccc(-n4ncc(OCc5ccc(F)cn5)cc4=O)cc31)C1CCCC(C2)N1` (centres unmarked) [Example 17, 5-((5-Fluoropyridin-2-yl)methoxy)-2-(5-methyl-6,7,8,9,10,11-hexahydro-7,11-imino-5H-cyclooct[b]indol-3-yl)pyridazin-3(2H)-one hydrochloride] was 28 nM. On the same count and under the same terms, under `Cn1c2c(c3ccc(-n4ccc(OCc5ccc(F)cc5F)cc4=O)nc31)C1CCC(C2)N1` (centres unmarked) [Example 45, 4-(2,4-Difluorobenzyloxy)-1-(10-methyl-5,6,7,8,9,10-hexahydro-5,8-iminocyclohepta[4,5]pyrrolo[2,3-b]pyridin-2-yl)pyridin-2(1H)-one hydrochloride] stands 26 nM; under `Cn1c2c(c3ccc(-n4ccc(-c5cnc(C(F)(F)F)nc5)cc4=O)cc31)C1CCC(C2)N1` (centres unmarked) [Example 7, 1-(5-Methyl-5,6,7,8,9,10-hexahydro-7,10-iminocyclohept[b]indol-3-yl)-4-(2-(trifluoromethyl)pyrimidin-5-yl)pyridin-2(1H)-one hydrochloride], 68.1 nM; under `Cn1c2c(c3ccc(-n4ccc(OCc5ccccc5)cc4=O)cc31)C1CCCC(C2)N1` (centres unmarked) [Example 12, 4-(Benzyloxy)-1-(5-methyl-6,7,8,9,10,11-hexahydro-7,11-imino-5H-cyclooct[b]indol-3-yl)pyridin-2(1H)-one hydrochloride], 9.3 nM. As for `Cn1c2c(c3ccc(N4CCN(CCc5ccc(Cl)cc5)CC4=O)nc31)C1CCC(C2)N1` (centres unmarked) [Example 46, 4-(4-Chlorophenethyl)-1-(10-methyl-5,6,7,8,9,10-hexahydro-5,8-iminocyclohepta[4,5]pyrrolo[2,3-b]pyridin-2-yl)-piperazin-2-one dihydrochloride], the Ki turned out to be 99 nM. Consider `Cc1ccc(-c2ccn(-c3ccc4c5c(n(C)c4c3)CC3CCC5N3)c(=O)c2)cn1` (single isomer, unassigned; enantiomer b) [Example 35, 1-(5-Methyl-5,6,7,8,9,10-hexahydro-7,10-iminocyclohept[b]indol-3-yl)-4-(6-methylpyridin-3-yl)-pyridin-2(1H)-one hydrochloride (Enantiomer B)], for which the Ki was 59 nM. Same read-out and setting: under `Cn1c2c(c3ccc(-n4ccc(OCc5ccc(F)cn5)cc4=O)nc31)C1CCC(C2)N1` (centres unmarked) [Example 43, 4-((5-Fluoropyridin-2-yl)methoxy)-1-(10-methyl-5,6,7,8,9,10-hexahydro-5,8-iminocyclohepta[4,5]pyrrolo[2,3-b]pyridin-2-yl)pyridin-2(1H)-one hydrochloride] stands 38 nM.

On to `Cn1c2c(c3ccc(-n4ccc(-c5ccc(C(F)(F)F)nc5)cc4=O)nc31)C1CCC(C2)N1` (centres unmarked) [Example 44, 1-(10-Methyl-5,6,7,8,9,10-hexahydro-5,8-iminocyclohepta[4,5]pyrrolo[2,3-b]pyridin-2-yl)-4-(6-(trifluoromethyl)pyridin-3-yl)pyridin-2(1H)-one hydrochloride], for which the Ki was determined as 110 nM. Same read-out and setting: under `Cn1c2c(c3ccc(-n4ccc(-c5ccc(C(F)(F)F)cn5)cc4=O)cc31)C1CCC(C2)N1` (centres unmarked) [Example 4, 1-(5-Methyl-5,6,7,8,9,10-hexahydro-7,10-iminocyclohept[b]indol-3-yl)-4-(5-(trifluoromethyl)pyridin-2-yl)pyridin-2(1H)-one dihydrochloride] stands 16.1 nM; under `O=c1cc(OCc2ccc(F)cn2)ccn1-c1ccc2c3c([nH]c2c1)CC1CCC3N1` (centres unmarked) [Example 9, 4-((5-Fluoropyridin-2-yl)methoxy)-1-(5,6,7,8,9,10-hexahydro-7,10-iminocyclohept[b]indol-3-yl)pyridin-2(1H)-one dihydrochloride], 25.3 nM.

Turning to `Cn1c2c(c3ccc(-n4ccc(-c5ccc(C(F)(F)F)nc5)cc4=O)cc31)C1CCC(C2)N1` (centres unmarked) [Example 5, 1-(5-Methyl-5,6,7,8,9,10-hexahydro-7,10-iminocyclohept[b]indol-3-yl)-4-(6-(trifluoromethyl)pyridin-3-yl)pyridin-2(1H)-one dihydrochloride], the Ki came to 6.5 nM.
